Entries after “also recorded” stand apart in the source; their conditions may differ. Counter-ions that a name gives are not always drawn.
Tests used:
Type in all cases: physicochemical
[1] = Solubility of salts in water and in 0.2 M phosphate buffer pH 6 at 37° C. after 4 hours (HPLC-DAD); settings: for Dissolution behaviour in aqueous media (gelling, wettability): salt screen, water and/or 0.2 M phosphate buffer pH 6; for pH (4 h): pH at end of equilibration
Summary of the method: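 About 5 mg of salt received 200 μL aliquots of water or 0.2 M phosphate buffer pH 6, up to 1 mL, and was stirred at 37 °C for 4 h. After centrifugation and 0.2 […] PTFE filtration, dissolved concentration was determined by HPLC-DAD against voruciclib calibration, and final pH was recorded.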

[2] = Qualitative solubility determination in water at room temperature, with observation of gel formation; settings: for Behaviour upon addition of water (gel formation): small amount of water added to solid
Protocol: The aqueous solubility of Oxa2 (starting material) was assessed by the qualitative solubility determination approach. To 5.4 mg of Oxa2, water was added in steps of 50 μl until the material was dissolved (Exp. ID: SAS1). Visual inspection by the naked eye was used to decide whether complete dissolution occurred.
After the addition of 7.5 ml water, Oxa2 was not dissolved in water at room temperature. The suspension was heated to 50° C. upon which complete dissolution occurred, as indicated by a clear solution.
The aqueous solubility of Pho1 (Exp. ID: TCP23) was assessed by the qualitative solubility determination approach. To 5.6 mg of Pho1, water was added in steps of 50 μl until the material was dissolved (Exp. ID: SAS2). Visual inspection by the naked eye was used to decide whether complete dissolution occurred. After the addition of 700 μl water, Pho1 was not dissolved in water at room temperature whereas after a subsequent addition of 200 μl water (900 μl in total), the material completely dissolved.
The solubility of Mao1 in water was determined by adding small aliquots of water to the material until it was dissolved.

[3] = Physical stability upon exposure to accelerated aging conditions (AAC, 40° C./75% RH), re-analysis by HT-XRPD; settings: for Physical stability upon exposure to AAC: HT-XRPD before and after; for Stable during AAC: salt screen solids
[4] = Dynamic Vapor Sorption (DVS) hygroscopicity; settings: for Water uptake: 25° C./80% RH; for Hygroscopicity classification: European Pharmacopoeia classification, water uptake at 25° C./80% RH; for Solid form recovered after DVS analysis: XRPD after sorption-desorption-sorption cycle
Protocol: (§1) Differences in hygroscopicity (moisture uptake) of the various forms of a solid material provided a measure of their relative stability at increasing relative humidity. Moisture sorption isotherms of small samples were obtained using a DVS-1 system from Surface Measurement Systems (London, UK); this instrument is suitable for use with a few milligrams of sample, with an accuracy of 0.1 μg. The relative humidity was varied during sorption-desorption-sorption (45-95-0-45% RH) at a constant temperature of 25° C. Weight equilibration per step was set at dm/dt <0.0002 for a minimum of 1 hour or maximum of 6 hours. Afterwards the sample was measured by HT-XRPD.
The hygroscopicity was classified according to the European Pharmacopoeia Hygroscopicity classification.
as §1, with “(40-95-0-40%” for “(45-95-0-45%”
as §1, with “use with as little as a few” for “use with a few”
The hygroscopicity of Mao1 was determined by DVS. The powder was exposed to a RH profile consisting of sorption/desorption/sorption cycles (40-95-0-40% RH) performed at 25° C. The water vapor uptake gained during the sorption half-cycle was 0.75%.

[5] = 0.2 M phosphate buffer pH 6, 37° C., 4 hours
[6] = 0.2M phosphate buffer pH 6, 37° C., 4 hours, about 1 mg salt in 1 mL
[7] = 0.2M phosphate buffer pH 6, 37° C., 4 hours, about 5 mg salt in 1 mL
[8] = 0.2 M phosphate buffer pH 6, 37° C., 4 hours, XRPD
[9] = 0.2M phosphate buffer pH 6, 37° C., about 1 mg salt in 1 mL
[10] = 0.2M phosphate buffer pH 6, 37° C., about 5 mg salt in 1 mL
[11] = water, 37° C., 4 hours, about 1 mg salt in 1 mL
[12] = water, 37° C., 4 hours, about 5 mg salt, up to 1 mL
[13] = water, 37° C., about 1 mg salt in 1 mL
[14] = water, 37° C., about 5 mg salt, up to 1 mL

Row | Structure (SMILES) | Dissolution behaviour in aqueous media (gelling, wettability) [1] | Behaviour upon addition of water (gel formation) [2] | Physical stability upon exposure to AAC ([3]; 40° C./75% RH, 2 days) | Stable during AAC ([3]; 40° C./75% RH, 2 days) | Solubility in phosphate buffer [1, 5] | solubility [1, 6] | solubility [1, 7] | Solids recovered / salt dissociation after solubility determination in buffer [1, 8] | Form (4 h) of residual solid [1, 9] | pH (4 h) [1, 9] | Form (4 h) of residual solid [1, 10] | pH (4 h) [1, 10] | solubility [1, 11] | solubility [1, 12] | pH (4 h) [1, 13] | pH (4 h) [1, 14] | Water uptake ([4]; DVS) | Hygroscopicity classification [4] | Solid form recovered after DVS analysis [4] | further results
1 | CN1CC[C@H](c2c(O)cc(O)c3c(=O)cc(-c4ccc(C(F)(F)F)cc4Cl)oc23)[C@H]1CO (stereo in doubt) [voruciclib malonate, 2-(2-chloro-4-(trifluoromethyl)phenyl)-5,7-dihydroxy-8-((2S,3R)-2-(hydroxymethyl)-1-methylpyrrolidin-3-yl)-4H-chromen-4-one malonate salt] | no gelling | gelling was not observed when exposed to water | – | – | – | – | – | – | – | – | – | – | – | – | – | – | – | – | – | Solubility pH 6 [1, 5]: 0.07 mg/mL; Solubility water ([1]; water, 37° C., 4 hours): 4400 µg/mL; solubility at 4 h ([1]; water, 37 °C, thermodynamic from solid, secondary salt screen (FIG. 290)): > 5000 µg/mL
2 | CN1CC[C@@H](c2c(O)cc(O)c3c(=O)cc(-c4ccc(C(F)(F)F)cc4Cl)oc23)[C@@H]1CO.O=C(O)CC(=O)O [Mao1] | there was no gelling or increase in viscosity observed | no gel-formation was observed; also recorded: gel formation was not observed | physically stable upon exposure to AAC; also recorded: physically stable upon exposure to stress conditions | Yes | 70 µg/mL | 20 µg/mL | 70 µg/mL | dissociation of the salt occurred | Free | 6.2 | Free | 5.8 | (0.9) mg/mL | 4440 µg/mL | 4.1 | 3.5 | 0.15% | non-hygroscopic | No solid form conversion was observed | Physically stable ([3]; malonate salt forms, exposure to AAC 40° C./75% RH, 2 days): Yes; Solid forms: Ambient-dried solid (AAC) ([3]; malonate salt thermocycling experiments, label = form of the ambient-dried solid before AAC, 40° C./75% RH, 2 days, HT-XRPD): Mao1; Solid forms: Evap. ML (AAC) ([3]; malonate salt thermocycling experiments, label = form of the solid from the evaporated mother liquor before AAC, 40° C./75% RH, 2 days, HT-XRPD): Mao1; Solid forms: Vacuum-dried solids (AAC) ([3]; malonate salt thermocycling experiments, label = form of the vacuum-dried solid before AAC, 40° C./75% RH, 2 days, HT-XRPD): Mao1; Liquid phase AAC (XRPD form after accelerated aging) ([3]; solids from evaporated mother liquors of the salt screen, 40° C./75% RH for 2 days, HT-XRPD): Mao1; Solubility in water ([1]; water, 37° C., 4 hours): 4400 µg/mL; Solids recovered after solubility determination in water ([1]; water, 37° C., 4 hours, XRPD): the solids recovered were still identical to Mao1; Form (4 h) of residual solid [1, 14]: Mao1; Water uptake gained during the first sorption half-cycle ([4]; DVS, 25° C., 40 to 95% RH): 0.75%; Solubility in water at room temperature ([2]; qualitative determination by adding aliquots of water, visual): approximately 13 mg/ml
3 | CN1CCC(c2c(O)cc(O)c3c(=O)cc(-c4ccc(C(F)(F)F)cc4Cl)oc23)C1CO.O=P(O)(O)O (stereo not shown) [Pho1] | no gelling was observed | became a gel when exposed to water; also recorded: became a gel upon addition of water; also recorded: became a gel-like material | the only stable from when exposed to advance aging conditions; also recorded: physically stable under AAC for 2 days; also recorded: physically stable upon exposure to AAC for two days; also recorded: remained stable | Yes | about 0.03 mg/mL | hazy | 30 µg/mL | salt had dissociated in the buffer solution | Free | 6.0 | Free | 5.8 | (0.9) mg/mL | (5.2) mg/mL | 4.6 | 3.7 | approximately 5.0% | moderately hygroscopic | Pho1 was recovered | Solid phase AAC (XRPD form after accelerated aging) ([3]; precipitated solids of the salt screen, dried under vacuum at 50° C., 40° C./75% RH for 2 days, HT-XRPD): Pho1; Stability against variable humidity conditions ([4]; between 0-95% RH): stable against variable humidity conditions
